Results as given in patent US8394775B2 (Amorepacific Corporation, priority 2005, dated 2013).

Assays:
[1] = system: human skin; assay: Whitening effect on human skin after UV-induced darkening; type: in vivo; conditions: 1% applied on UV-darkened upper arm skin, 10 weeks, colorimeter
Method: Firstly, 12 healthy males were enlisted for the test. They had opaque tape with a 1.5 cm hole attached on the upper arm. UV rays 1.5 to 2 times greater than the minimal erythema dose were irradiated to induce darkening of the skin.
For 10 weeks, the change was observed. Every 1 week, the color of the skin was measured by colorimeter CR2002 (Japan, Minolta)
Then, the difference of skin color (ΔL*) between the point when the application of the test material was initiated and the point when the application of the test material was completed was calculated according to the following equation and the result is shown in Table 7. Meanwhile, the whitening effect was determined by comparison of ΔL* between the sample applied part and the control. When ΔL* value is about 2, the whitening of the pigmentation was significant. When ΔL* is over 1.5, it was considered that the sample had whitening effect. ΔL*=(L*at the point when the application is completed)−(L*at the point when the application is initiated) [Equation 4]

[2] = system: Human keratinocytes HaCaT cell line; assay: Inhibition of reactive oxygen species (ROS) production using fluorescent material (DCFH-DA), UVB irradiation; type: cell-based; conditions: HaCaT cells, UVB 30 mJ/cm^2, DCF fluorescence
Method: The cell lines used in the test was Human keratinocytes HaCaT cell line. The cells were distributed to a 96 well black plate for fluorescence measurement at 2.0×10^4 per each well and cultured in DMEM (Dulbeccos Modification of Eagles Medium, FBS 10%) supplemented with penicillin/streptomycin at 37° C., 5% CO2 for 1 day, followed by treatment with test samples. Serum free DMEM (FBS free) supplemented with penicillin/streptomycin as shown in Table 2 was used for cultivation of the medium which had been treated with samples. The cultivation was performed at 37° C., 5% CO2 for 1 day.
After cultivation of 24 hours with test samples, the plate was washed with HCSS (HEPES-buffered control salt solution) to remove the medium and the HCSS was treated with 100 μl of 20 μM DCFH-DA (2′,7′-dichlorodihydro-fluorescein diacetate, Molecular Probes, Inc). Then, the plate was kept under conditions of 37° C., 5% CO2 for 20 minutes and washed with HCSS. Next, the plate was treated with 100 μl of HCSS comprising samples at different concentrations and the fluorescence intensity of DCF (dichlorofluorescein), which had been oxidized […] at the early stage, was measured using a fluorescent plate reader (Ex=485 nm, Em=530 nm). The fluorescence, right after the irradiation of UVB (30 mJ/cm^2) or 3 hours later of the irradiation, was measured using a fluorescent plate reader (Ex=485 nm, Em=530 nm).
As control, Trolox was used.

[3] = system: elastase; assay: Inhibition of elastase expression in human fibroblasts; type: cell-based; conditions: molar concentration of 10^−4, 24 hours, compared to 100 of the non-treatment group
Method: (§1) Firstly, human fibroblasts were seeded in a 96-well microtiter plate containing DMEM supplemented with 2.5% fetal bovine serum at a level of 5000 cells per well and cultured until they grew up to 90%.
Then, the culture fluid was examined for formation of elastase using a commercially available elastase measuring kit (Amorsham pharmacia, USA).
(§2) Firstly, the taken cell culture fluid was added to the 96-well plate having the primary elastase antibody evenly applied and left for antigen-antibody reaction in a thermostat for 3 hours. After 3 hours, the secondary collagen antibody having a chromophore bonded thereto was added to the 96-well plate and left for reaction for 15 minutes. After 15 minutes, a color developing agent was added and left for 15 minutes. Then, 1M sulphuric acid was added to quit the reaction (color development), upon which the color of the reaction became yellow. The yellow level varied according to the progress of the reaction.
(§3) The absorption of the 96-well plate of the yellow color was measured at 405 nm using a spectrophotometer. The expression of elastase was calculated according to the following Equation II. Here, the absorption of the control was the absorption of the cell culture fluid taken from the group which had not been treated with the test materials. Expression of elastase (%)=(A/B)×100 [Equation II] • (A: absorption of cells treated with the test materials B: absorption of control)
Meanwhile, the result of measurement of inhibition effect of the test materials on elastase expression in human fibroblasts is shown in Table 5, in which the expression of elastase is compared to 100 of the non-treatment group.

[4] = system: pigment cells (Mel-Ab cell); assay: Inhibition of melanin synthesis using pigment cell of mouse; type: cell-based; conditions: 10 ppm for continuous 3 days, non-treatment group given as 100.0
Excerpt: Here, hydroquinone was a positive control.

[5] = DPPH test of anti-oxidant effect; type: biochemical; conditions: read-out: DPPH analysis IC50 (concentration, upon which the absorption is decreased to 50%); 100 μM DPPH in ethanol, 37° C., 30 minutes, absorption at 540 nm
Method: A method for evaluating anti-oxidant effect through change of absorption generated by reduction of the organic radical DPPH (1,1-diphenyl-2-picryl hydrazyl) (while anti-oxidant is oxidized) is used. The change of absorption, which was decreased when the oxidization of DPPH was inhibited, was measured, as compared to the control.
The absorption was measured at 540 nm. The control sample was synthesized anti-oxidant Trolox, commonly used.

[6] = system: procollagen type (I); assay: Promotion of collagen biosynthesis in fibroblasts (procollagen type (I) ELISA); type: cell-based; conditions: 24 hours, compared to 100 of the non-treatment group
Method: Firstly, fibroblasts (PromoCell, Germany) were seeded in a 24 well plate at a level of 10^5 per well and cultured until they grew up to 90%. […] The supernatant was taken and examined for increase and decrease of procollagen using procollagen type (I) ELISA kit (proc/; ollagen type (I)). The result is shown in Table 3, in which the synthesis is compared to 100 of the non-treatment group.

[7] = system: collagenase; assay: Inhibition of collagenase expression in human fibroblasts; type: cell-based; conditions: molar concentration of 10^−4, 24 hours, compared to 100 of the non-treatment group
Method: as §1
Then, the culture fluid was examined for formation of collagenase using a commercially available collagenase measuring kit (Amorsham pharmacia, USA).
as §2, with “collagenase” for “elastase”
as §3, with “collagenase” for “elastase”, “I.” for “II.”, “collagenase (%) (A/B)×100” for “elastase (%)=(A/B)×100”, “I]” for “II]”
Meanwhile, the result of measurement of inhibition effect of the test materials on collagenase expression in human fibroblasts is shown in Table 4, in which in which the expression of collagenase is compared to 100 of the non-treatment group.

Molecule | Whitening effect (ΔL*) [1] | Inhibition effect on ROS production (control %) ([2]; 6.25 uM) | Inhibition effect on ROS production (control %) ([2]; 12.5 uM) | Inhibition effect on ROS production (control %) ([2]; 25 uM) | Inhibition effect on ROS production (control %) ([2]; 50 uM) | Expression of elastase (%) [3] | Melanin content (% of untreated control) [4] | IC50 [5] | Synthesis (%) of procollagen [6] | Expression of collagenase (%) [7] | activity at 6.25 µM ([2]; Homo sapiens, light or radiation study, 6.25 uM, read-out: Inhibition effect on ROS production (control %)) | activity at 12.5 µM ([2]; Homo sapiens, light or radiation study, 12.5 uM, read-out: Inhibition effect on ROS production (control %)) | activity at 25 µM ([2]; Homo sapiens, light or radiation study, 25 uM, read-out: Inhibition effect on ROS production (control %)) | activity at 50 µM ([2]; Homo sapiens, light or radiation study, 50 uM, read-out: Inhibition effect on ROS production (control %))
COc1ccc(-c2oc3c(CC=C(C)C)c(O[C@@H]4O[C@H](CO)[C@@H](O)[C@H](O)[C@H]4O)cc(O)c3c(=O)c2O)cc1 [Icariside I] | 1.88 ± 0.17 | 65.6% | 61.4% | 54.8% | 43.8% | 56% | 38.6% | 7.78 µM | 145% | 64% | – | – | – | –
COc1ccc(-c2oc3c(CC=C(C)C)c(O[C@@H]4O[C@H](CO)[C@@H](O)[C@H](O)[C@H]4O)cc(O)c3c(=O)c2O[C@@H]2O[C@@H](C)[C@H](O)[C@@H](O)[C@H]2O)cc1 [Icariin] | 1.10 ± 0.13 | 98.1% | 89.7% | 88.6% | 86.3% | 87% | 84.5% | – | 117% | 81% | – | – | – | –
Cc1c(C)c2c(c(C)c1O)CCC(C)(C(=O)O)O2 (stereo not shown) [Trolox, reference compound] | – | – | – | – | – | – | – | 8.63 µM | – | – | 76.9% | 74.6% | 73.3% | 58.5%
Oc1ccc(O)cc1 [Hydroquinone, hydroquinone, reference compound] | 1.90 ± 0.11 | – | – | – | – | – | 41.1% | – | – | – | – | – | – | –
COc1ccc(-c2oc3c(CC=C(C)C)c(O)cc(O)c3c(=O)c2O)cc1 [Icaritin] | 1.89 ± 0.25 | 68.2% | 61.5% | 51.7% | 43.2% | 55% | 39.5% | 6.75 µM | 146% | 66% | – | – | – | –
tocopherol [reference compound] | – | – | – | – | – | 88% | – | – | 118% | 75% | – | – | – | –
COc1ccc(-c2oc3c(CC=C(C)C)c(O)cc(O)c3c(=O)c2O[C@@H]2O[C@H](C)[C@@H](O)[C@H](O)[C@@H]2O)cc1 [Icariside II] | 1.83 ± 0.25 | 63.2% | 62.0% | 56.6% | 46.6% | 63% | 38.2% | 7.15 µM | 138% | 66% | – | – | – | –
O=C(O[C@@H]1Cc2c(O)cc(O)cc2O[C@@H]1c1cc(O)c(O)c(O)c1)c1cc(O)c(O)c(O)c1 [EGCG, reference compound] | – | – | – | – | – | 68% | – | – | 125% | 60% | – | – | – | –
